Read-outs that look alike come from different tables or passages of the source.
Tests used:
WM115 cells [1] = test: Lactate dehydrogenase (LDH) release assay; conditions: after 72-hour incubation
Method: (§16) The LDH assay quantitatively measures lactate dehydrogenase (“LDH”) released into the media from damaged cells as a biomarker for cytotoxicity and cytolysis.
(§17) CytoTox-ONE™ Homogenous Membrane Integrity Assay was purchased from Promega.
(§18) For the LDH release assay, plates were removed from the incubator and equilibrated at room temperature for 15 minutes. Plates were then centrifuged at 1,000 RPM for 1 minute. 20 μL of cell culture medium was transferred into a new 384-well black solid plate. Then, 20 μL of CytoTOX-ONE™was added into each well and incubated at room temperature for 10 minutes. Afterward, 10 μL of stop solution were added to each well, and the plates were agitated at 500 rpm for 1 minute. Plates were read using an excitation wavelength of 560 nm and an emission wavelength of 590 nm on EnSpire. The relative activity was calculated according to the following formula: Relative Activity (%)=100%×(Lumsample−Lumbkg)/(Lumvehicle−Lumbkg).

MelanoDerm™ Skin Model = test: MelanoDerm assay, visual pigmentation; type: cell-based, human; conditions: day 7; 200 μM and 50 μM, topical every 48 hours
Method: FIGS. 16A-16K are photographs of MelanoDerm™ matrices at either day 0 or day 7 after exposure to no treatment (FIG. 16A), sterile deionized water (FIG. 16B), 1% kojic acid (FIG. 16C), 0.2% DMSO (FIG. 16D), 0.05% DMSO (FIG. 16E), 200 μM CV-8684 (FIG. 16F), 50 μM CV-8684 (FIG. 16G), 200 μM CV-8686 (FIG. 16H), 50 μM CV-8686 (FIG. 16I), 200 μM CV-8688 (FIG. 16J), and 50 μM CV-8688 (FIG. 16K).
The MelanoDerm™ Skin Model provided by MatTek Corporation (Ashland, MA) will be used in this study. The MelanoDerm™ tissue consists of normal, human-derived epidermal keratinocytes (NHEKs) and melanocytes (NHMs) which have been cultured to form a multilayered, highly differentiated model of the human epidermis. The NHMs within co-cultures undergo spontaneous melanogenesis leading to tissues of varying levels of pigmentation. The cultures are grown on cell culture inserts at the air-liquid interface, allowing for topical application of skin modulators. […]
At the end of the 7-day trial, the MelanoDerm™ tissues dosed with the negative or positive control, and with each test article will be photographed using a digital camera to aid in the visual assessment of the degree of pigmentation of the tissues at the end of the assay (Day 7). […] Then, the viability of the tissues will be determined by MTT reduction as indicated below.

WM115 cells [2] = test: CellTiter-Glo cell viability assay; type: cell-based; conditions: doses 100, 10, 1 μM, 6-72 hours
Method: (§1) CellTiter-Glo® 2.0 assay was purchased from Promega.
(§2) CellTiter-Glo® reagents were thawed and equilibrated to room temperature before the experiment. 40 μL of CellTiter-Glo® reagent was then added to each well for detection (at 1:1 ratio to culture medium). The plates were then incubated at room temperature for 30 minutes and read using EnSpire (PerkinElmer) plate reader. The remaining activity was calculated according to the following formula: Remaining Activity (%)=100%×(Lumsample−Lumbkg)/(Lumvehicle−Lumbkg).

MeWo cells [3] = test: CellTiter-Glo cell viability assay; type: cell-based; conditions: doses 100, 10, 1 μM, 6-72 hours
Method: as §1, §2

WM115 cells [4] = test: Additional annexin V assay (3 doses, 6-72 hours); type: cell-based; conditions: 6 hours, doses 100, 10, 1 μM
Method: (§3) To further investigate the impact of test compounds on apoptosis, multiple readouts, covering different stages of apoptosis, were carried out on both MeWo and WM115 cells. Both cell types were treated with test compounds at 3 doses (100 μM, 10 μM, and 1 μM). Staurosporine was used as a positive control. […] The test compounds evaluated were CV-8684, CV-8685, and CV-8688.
(§4) Cell seeding was performed as discussed above with the following exceptions: the final cell density was 4,000 cells/well for 6-hour and 24-hour detections, whereas 2,000 cells/well were used for 48-hour and 72-hour detections. For each time point, 384-well clear bottom plates (Corning 3712) and solid white bottom plates (Corning 3570) were prepared. The plates were incubated as discussed above.
(§5) For preparation of the compound source plate, each test compound was dissolved in DMSO to 10 mM stock. Two additional concentrations were generations by 10-fold dilution to 1 mM and 0.1 mM. Staurosporine was used as positive control and 1% DMSO was employed as vehicle (negative) control. The compound source plate was spun at room temperature at 1,000 RPM for 1 minute and agitated using a plate shaker for 2 minutes.
(§6) 400 nL of test compound was transferred from the compound source plate to 384-well culture plates using Echo550 liquid handler. After 6, 24, 48, and 72 hours, the plates were removed from the incubator for detections.
(§7) Culture media was removed and cells were washed twice with PBS. 20 μL of pre-mixed annexin V-FITC working solution was added to each well. The cells were incubated at room temperature for 20 minutes. Plates were read using Acumen eX3 to count the number of FITC-positive cells.

MeWo cells [5] = test: Additional annexin V assay (3 doses, 6-72 hours); type: cell-based; conditions: 6 hours, doses 100, 10, 1 μM
Method: as §3, §4, §5, §6, §7

WM115 cells [6] = test: Cell morphology after treatment (micrographs); type: cell-based; conditions: 100 μM of test compound, 6 hours
Method: FIGS. 9A-9K are micrographs showing WM115 cell morphology after 6 hours of treatment with various concentrations of CV-8684, CV-8685, CV-8688, DMSO, and staurosporine.
(§8) Typical cell morphology after various treatments is shown in FIGS. 5A-5K, 6A-6K, 7A-7K, 8A-8K, 9A-9K, 10A-10K, 11A-11K, and 12A-12K.

[7] = target: T1, arylhydrocarbon receptor (AhR) (Homo sapiens, UniProt P35869); conditions: Wille et al., 2001; cited from earlier work
T1 sequence (P35869 11-848): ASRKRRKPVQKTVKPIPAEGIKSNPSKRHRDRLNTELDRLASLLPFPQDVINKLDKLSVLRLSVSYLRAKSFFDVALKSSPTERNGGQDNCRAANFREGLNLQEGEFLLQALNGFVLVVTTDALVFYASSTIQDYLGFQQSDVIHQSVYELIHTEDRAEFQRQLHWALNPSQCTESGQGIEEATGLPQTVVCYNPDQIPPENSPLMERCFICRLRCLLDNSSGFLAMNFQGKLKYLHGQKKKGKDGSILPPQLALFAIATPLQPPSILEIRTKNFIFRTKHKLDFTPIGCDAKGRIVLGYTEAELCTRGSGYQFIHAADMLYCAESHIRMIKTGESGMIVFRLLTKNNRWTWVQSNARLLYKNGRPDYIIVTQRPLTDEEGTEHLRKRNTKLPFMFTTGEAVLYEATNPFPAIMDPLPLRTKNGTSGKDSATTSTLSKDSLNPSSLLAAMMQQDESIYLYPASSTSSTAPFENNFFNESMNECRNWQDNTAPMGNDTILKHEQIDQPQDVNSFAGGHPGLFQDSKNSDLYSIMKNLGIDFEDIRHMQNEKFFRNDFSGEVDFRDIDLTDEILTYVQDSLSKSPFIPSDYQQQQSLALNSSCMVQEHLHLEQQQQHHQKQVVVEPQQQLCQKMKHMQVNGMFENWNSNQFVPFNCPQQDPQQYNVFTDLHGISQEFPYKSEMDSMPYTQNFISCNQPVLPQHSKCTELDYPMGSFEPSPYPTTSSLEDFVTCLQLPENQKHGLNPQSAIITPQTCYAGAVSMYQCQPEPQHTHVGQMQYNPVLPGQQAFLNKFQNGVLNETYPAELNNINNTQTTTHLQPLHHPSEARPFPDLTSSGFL

[8] = tested on: primary human melanocytes; conditions: Krämer, et al., 2005; cited from earlier work
MeWo cells [9] = test: Lactate dehydrogenase (LDH) release assay; conditions: after 72-hour incubation
Method: as §16, §17, §18

MeWo cells [10] = test: Cell morphology after treatment (micrographs); type: cell-based; conditions: 100 μM of test compound, 6 hours
Method: FIGS. 5A-5K are micrographs showing MeWo cell morphology after 6 hours of treatment with various concentrations of CV-8684, CV-8685, CV-8688, DMSO, and staurosporine.
as §8

MeWo cells [11] = test: Preliminary annexin V assay; type: cell-based; conditions: 6-hour treatment, preliminary screen
Text: (§9) MeWo (ATCC® HTB-65™) and WM115 (ATCC® CRL-1675) cells were purchased from ATCC (Manassas, VA) and maintained in the following: for MeWo: DMEM supplemented with 10% FBS; for WM115: RPMI 1640 supplemented with 10% FBS (10% FBS, 1% stabilized antibiotic anti-mycotic solution).
(§10) In the […] stages of apoptosis, phosphatidylserine (“PS”) is translocated from the inner to the outer leaflet of the cell membrane, exposing PS to the extracellular environment, where it can be detected. Highly fluorescent annexin V conjugates provide quick and reliable detection methods for studying the externalization of PS.
(§11) During the first set of studies, both MeWo and WM115 cells were treated with test compounds at 10 doses starting from 100 μM with 3-fold dilution. Staurosporine was used as positive control. After 6-hour treatment, cell apoptosis was assessed using an annexin V assay. The test compounds evaluated were CV-8684, CV-8685, CV-8686, CV-8687, and CV-8688.
(§12) For cell seeding, cells were harvested and the cell number was determined using Countess® cell counter. Cells were then diluted with culture medium to the desired density. 40 μL of cell suspension per well was added to the required number of wells in a 384-well plate (Corning 3712—clear bottom plate). The final cell density was 6,000 cells/well. After plating, the plates were incubated at 37° C. and 5% CO2 overnight.
(§13) For preparation of compound source plate, each test compound was dissolved in DMSO to 10 mM stock. 3-fold serial dilution was performed using an EVO200™ liquid handler (TECAN) to generate ten concentrations of test compound. 0.1% DMSO was employed as vehicle (negative) control. The compound source plate was then spun at room temperature at 1,000 RPM for 1 minute and agitated using a plate shaker for 2 minutes.
(§14) For compound treatment, 40 nL of compound were transferred from the compound source plate to the 384-well culture plate using liquid handler Echo550 (LabCyte Inc.). After 6-hour incubation, the plates were removed from the incubator for detection.
(§15) For the preliminary annexin V assay, the plates were removed from the incubator and allowed to equilibrate at room temperature for 15 minutes. Culture media was then removed. 20 μL of pre-mixed annexin V-FITC and Hoechst33342 dye working solution were added to each well. The cells were then incubated at room temperature for 20 minutes. The plates were sealed and centrifuged for 1 minute at 1,000 RPM to remove bubbles. Afterward, the plate was read using an Acumen eX3 plate reader.

[12] = CellTiter-Glo cell viability assay; type: cell-based; conditions: human, after 24-hour treatment, read-out: inhibition of cell viability
Method: as §1, §2

WM115 cells [13] = test: Preliminary annexin V assay; type: cell-based; conditions: 6-hour treatment, preliminary screen
Text: as §9, §10, §11, §12, §13, §14, §15

Row | LDH release (WM115 cells [1]) | LDH release (MeWo cells [9]) | EC50 (MeWo cells [11]; read-out: EC50 of annexin V staining) | SMILES | pigmentation of MelanoDerm tissues (MelanoDerm™ Skin Model) | inhibition of cell viability (WM115 cells [2]) | inhibition of cell viability (MeWo cells [3]) | apoptosis induction (annexin V) (WM115 cells [4]) | apoptosis induction (annexin V) (MeWo cells [5]) | cell morphology (WM115 cells [6]) | AhR agonist activity [7] | apoptosis induction [8] | cell morphology (MeWo cells [10]) | annexin V staining (MeWo cells [11]) | cytotoxicity at 24 h ([12]; MeWo) | cytotoxicity at 24 h ([12]; WM115) | annexin V staining (WM115 cells [13])
1 | did not induce significant release | did not induce significant release | – | O=Cc1c(Cc2c[nH]c3ccccc23)[nH]c2ccccc12 [CV-8684, 2-(1H-indol-3-ylmethyl)-1H-indole-3-carbaldehyde] | reduced pigmentation | dose-dependent inhibition of cell viability | dose-dependent inhibition of cell viability | induced apoptosis at the highest concentration tested | induced apoptosis at the highest concentration tested | significantly affected | known agonist | induces apoptosis | significantly affected | – | – | – | –
2 | – | – | 909 nM | CC(c1[nH]c2ccccc2c1C=O)c1c[nH]c2ccccc12 (centres unmarked) [CV-8688] | reduced pigmentation | inhibited viability of both cell types in a dose-dependent manner | inhibited viability of both cell types in a dose-dependent manner | showed the induction effect within 6 hours of treatment in a dose-dependent manner | showed the induction effect within 6 hours of treatment in a dose-dependent manner | significantly affected | – | – | significantly affected | markedly increased | – | – | –
3 | – | – | – | CN[C@@H]1C[C@H]2O[C@@](C)([C@@H]1OC)n1c3ccccc3c3c4c(c5c6ccccc6n2c5c31)C(=O)NC4 [Staurosporine, reference compound] | – | – | – | – | – | significantly affected | – | – | significantly affected | greatly increased | 100% | 100% | greatly increased

— patent publication US11987555B2, “Malassezin and analogs thereof as skin brightening agents” (Versicolor Technologies, LLC, priority 2016, dated 2024)
